This is an account of results in patent US20240287062A1, “NAPHTHYRIDONE COMPOUNDS FOR INHIBITION OF RAF KINASES AND/OR BCR-ABL TYROSINE KINASES” (Enliven Inc., priority 2021, published 2024).

A word on the IC50: it is the concentration that gives 50% inhibition. One may read the inhibition as the change of the read-out against control, counted positive when it falls. High values mean strong suppression, low ones little suppression.

The test system of one assay is HepG2 (NRAS Q61L). The experiment in a line: Cell viability assay (CellTiter Glo). It is filed as cell-based. To be noted: Homo sapiens, HepG2, 120 h, HepG2, 750 cells per well, read-out: BRAF Cytotoxicity (IC50, nM) HEPG2. On the procedure:
Cell viability was measured in the following MAPK pathway mutant cancer cell lines: A375 (BRAF V600E), HepG2 (NRAS Q61L), SK-MEL-30 (NRAS Q61K), and OCI-AML-2 (MBNL1-CRAF fusion). Cell viability was also measured in K562 cells.
A375, HepG2, SK-MEL-30 and OCI-AML-2 cells were grown in the appropriate growth medium as described in Table B2 below, and harvested at 50-80% confluence. Cells were counted and seeded at their appropriate density (see Table B1) in a 384-well plate (Corning 3570). A375, HepG2 and SK-MEL-30 were allowed to adhere overnight prior to treatment and the OCI-AML-2 were treated immediately for the indicated drug treatment times (Table 6).
Table 6 provides the growth media, number of cells seeded per well and drug treatment times for the each cell line. K562 cells were grown as described in Example B1 above.
Compounds were dissolved in DMSO and serially diluted. Serially-diluted compound or a DMSO only control (high control, “HC”) was added to the plated cells in each well. Compounds were tested at concentrations of about 10 μM to 0.51 nM, using three-fold dilutions. The final proportion of DMSO never exceeded 0.1%.
Plates were placed in a 37° C., […] incubator for the indicated treatment times (Table B1). Plates were then removed from the incubator and equilibrated for 15 minutes at room temperature. 40 μl of CellTiter Glo reagent (Promega) was added to measure the relative level of metabolically active cells by quantifying intracellular ATP concentrations. Plates were incubated for 30 minutes at room temperature, and luminescence was measured. Percent viability was normalized to a vehicle control only using the following formula: 0 viability=100×(LumSample−LumLC)/(LumHC−LumLC). Graphical curves were fitted using a nonlinear regression model with a sigmoidal dose response.
Background: ATP-based viability assays read luminescence as a measure of living cells.

For assay [1], the system named is phosphorylated ERK (pERK). Briefly: Detection of phosphorylated ERK (pERK), AlphaLISA in A375 cells. The class given is cell-based. To be noted: Homo sapiens, A-375, 4 h, four hours incubation, inhibition of ERK phosphorylation, read-out: PERK ELISA (IC50). On the procedure:
A375 cells were counted and seeded at 10,000 cells/well in 384 well plates (Corning 3764) and allowed to adhere overnight.
Compounds were dissolved and serially diluted in DMSO. The compounds were then added, mixed, and incubated for four hours at 37° C., 5% CO2. Compounds were added using four-fold dilutions at final concentrations ranging from 10 μM to 0.01 nM. DMSO only and 10 uM staurosporine were added as high and low controls.
Following the four-hour incubation with compounds, cell lysates were prepared and AlphaLISA assay measuring phosphorylated ERK was performed. Media was removed using the Apricot Designs pipettor. Lysis buffer was made from 1× AlphaLISA SureFire Assay Kit (AlphaLISA SureFire Ultra pERK 12 (Thr202/Tyr204) ALSU-PERK-A50K) lysis buffer with protease and phosphatase inhibitors. Cells were lysed by adding 10 uL to all the wells and mixed for 40 minutes on a plate shaker. 10 uL cell lysate was transferred to a new Optiplate (PerkinElmer 6007290) and incubated with 5 uL 1× acceptor mix for 2 hours in the dark. 5 uL of 1× donor mix was added to all wells and mixed by shaking followed by overnight incubation in the dark.
pERK AlphaLISA signal was read on the Envision using standard AlphaLISA settings. Percent inhibition of ERK phosphorylation was calculated by % Inhibition=100×(LumHC−LumSample)/(LumHC−LumLC). The low and high controls (LC/HC) are generated from lysate from wells with cells treated with DMSO or […] Staurosporine (BioAustralis, cat #BIA-S1086), […]. IC50 values were calculated by fitting the Curve using XLfit (v5.3.1.3), equation 201: Y=Bottom+(Top−Bottom)/(1+10^((Log IC50−X)*HillSlope)).
A general note: Bead proximity is the source of the signal in Alpha formats.

The next assay deals with KDR (VEGFR2) (Homo sapiens (Human), UniProt P35968). Briefly: Luminescence-based KDR kinase assay (Km ATP), ADP-Glo. To be noted: compound at 100 nM concentration. The class given is biochemical. On the procedure:
Kinase activity of KDR was measured using the ADP-Glo system (Promega). Compounds were diluted in DMSO at 100 μM. 20 nL of compound or DMSO only (high control, HC) were added to a 384-well plate (OptiPlate-384, PerkinElmer) using an Echo550 liquid handler (Labcyte). 15 μL of kinase solution (10 mM MgCl2, 0.01% Brij-35, 2 mM DTT, 0.05% BSA, 1 mM EGTA, 0.05% CHAPSO, 50 mM HEPES pH 7.5, and 0.665 nM KDR [Carna Biosciences]) were added to each well of the 384-well plate containing the compounds. No enzyme control wells were included (low control, LC). The plate was incubated at room temperature for 30 minutes. 5 μL of a second solution containing 10 mM MgCl2, 0.01% Brij-35, 2 mM DTT, 0.05% BSA, 1 mM EGTA, 50 mM HEPES pH 7.5, 6 μM Peptide 22 (Perkin Elmer, Cat No 760366), and 400 μM ATP were added to each well to start the kinase reaction. The plate was incubated for 90 minutes at room temperature. 20 μL of ADP-Glo reagent (Promega) were then added to each well and the plate was incubated for 40 minutes at room temperature. […] During this step, ADP was converted to ATP, a substrate for luciferase, to produce luminescence signal. Luminescence was measured on an Envision plate reader (Perkin Elmer). Luminescence signal positively correlates with kinase activity. The percent inhibition of kinase activity was calculated as follows: percent inhibition=100×(LumHC−LumSample)/(LumHC−LumLC). […]
On the technique in general: ADP-Glo first removes unused ATP, then detects ADP through luciferase.

KDR (VEGFR2), sequence (P35968 20-1356): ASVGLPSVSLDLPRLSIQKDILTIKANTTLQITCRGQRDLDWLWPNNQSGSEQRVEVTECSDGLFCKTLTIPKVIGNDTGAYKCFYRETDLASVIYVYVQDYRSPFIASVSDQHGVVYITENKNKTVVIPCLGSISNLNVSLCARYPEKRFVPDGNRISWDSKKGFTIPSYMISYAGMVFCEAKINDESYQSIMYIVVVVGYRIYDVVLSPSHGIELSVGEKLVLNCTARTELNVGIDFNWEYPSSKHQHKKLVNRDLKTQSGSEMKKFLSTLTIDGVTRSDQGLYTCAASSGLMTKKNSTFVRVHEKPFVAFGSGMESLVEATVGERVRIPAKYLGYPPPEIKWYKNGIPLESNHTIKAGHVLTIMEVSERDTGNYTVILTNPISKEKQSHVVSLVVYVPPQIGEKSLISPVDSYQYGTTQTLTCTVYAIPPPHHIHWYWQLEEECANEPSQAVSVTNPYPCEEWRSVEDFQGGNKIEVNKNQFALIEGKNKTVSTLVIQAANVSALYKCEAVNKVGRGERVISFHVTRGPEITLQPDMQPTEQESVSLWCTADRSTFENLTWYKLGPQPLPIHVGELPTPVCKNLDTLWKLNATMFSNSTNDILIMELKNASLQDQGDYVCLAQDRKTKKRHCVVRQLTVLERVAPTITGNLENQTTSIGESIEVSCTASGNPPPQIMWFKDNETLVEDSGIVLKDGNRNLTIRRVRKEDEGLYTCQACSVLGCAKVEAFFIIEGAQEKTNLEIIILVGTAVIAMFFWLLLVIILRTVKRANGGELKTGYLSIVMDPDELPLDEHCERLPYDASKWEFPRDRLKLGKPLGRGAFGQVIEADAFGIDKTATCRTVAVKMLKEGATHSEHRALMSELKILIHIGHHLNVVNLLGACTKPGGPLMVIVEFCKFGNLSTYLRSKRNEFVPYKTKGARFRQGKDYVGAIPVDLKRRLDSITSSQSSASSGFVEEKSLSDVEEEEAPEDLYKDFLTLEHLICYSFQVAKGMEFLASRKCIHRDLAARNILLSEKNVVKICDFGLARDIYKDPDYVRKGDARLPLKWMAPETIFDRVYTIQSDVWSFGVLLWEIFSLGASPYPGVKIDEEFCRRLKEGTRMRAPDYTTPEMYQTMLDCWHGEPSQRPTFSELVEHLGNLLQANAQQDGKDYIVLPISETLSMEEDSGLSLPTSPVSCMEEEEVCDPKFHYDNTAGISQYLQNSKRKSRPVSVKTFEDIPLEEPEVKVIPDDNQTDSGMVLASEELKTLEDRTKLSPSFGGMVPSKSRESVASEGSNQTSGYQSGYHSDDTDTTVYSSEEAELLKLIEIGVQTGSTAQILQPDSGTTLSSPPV

Turning to `Cc1c(F)cncc1-c1cc2cnc(NC(=O)C3CC3)cc2n(C)c1=O` [Compound 2, N-[3-(5-fluoro-4-methylpyridin-3-yl)-1-methyl-2-oxo-1,6-naphthyridin-7-yl]cyclopropanecarboxamide], the results for the IC50 (in the assay on HepG2 (NRAS Q61L); in assay [1]) were 334 nM and 0.189 µM, respectively. Moreover, the inhibition at 0.1 µM at KDR (VEGFR2) came out at 32%.

Regarding `Cc1c(F)cncc1-c1cc2cnc(NC(=O)[C@@H]3C[C@@H]3F)cc2n(C)c1=O` [Compound 28, (1S,2S)-2-fluoro-N-[3-(5-fluoro-4-methylpyridin-3-yl)-1-methyl-2-oxo-1,6-naphthyridin-7-yl]cyclopropane-1-carboxamide], the values for the IC50 (with HepG2 (NRAS Q61L); in assay [1]) were 496 nM and 0.146 µM, respectively. Moreover, the inhibition at 0.1 µM against KDR (VEGFR2) amounted to 27%.
